Measured values taken from US8361510B2, “Nanogels for cellular delivery of therapeutics” (Georgia Tech Research Corporation, priority 2008, dated 2013).
Where no end group is shown, it is not given here.

Legend:
Format in all cases: cell-based
Hey cells [1] = assay: Flow cytometry of nanogel binding/uptake; settings: 0.8 mg/mL nanogels, four hours
Experimental: Flow cytometry. Hey cells were plated at 2.5×10^5 cells/well in a 12-well, cell culture plate. Cells were allowed to adhere overnight in an incubator at 37° C. in a 5% CO2 atmosphere. Cells were washed, and fresh medium was added containing YSA-pNIPMAm or SCR-pNIPMAm nanogels at a concentration of 0.8 mg/mL and incubated for four hours. Following incubation, the cells were washed with PBS and removed from the plate by Trypsin-EDTA treatment. The cells were washed with PBS and fixed with 2% (v/v) paraformaldehyde. Cells were analyzed using a LSR Flow Cytometer (BD Biosciences). Data analysis was carried out using FlowJo software.

Hey cells [2] = assay: Trypan blue exclusion assay
Experimental: Toxicity Studies—Trypan blue exclusion assay. Hey cells were plated onto an 8-well chamber slide (1×10^4 cells/well) and allowed to adhere overnight at 37° C. and 5% CO2. The media was removed, the wells washed with PBS, and the medium replaced. PNIPMAm nanogels, YSA-conjugated nanogels, and SCR-conjugated nanogels were added to cells and incubated for 72 h. Untreated cells were used as controls. After 72 h, the cells washed with PBS, and a 1:1 solution of trypan blue was added to each well. After 1 min, the trypan blue was removed, the cells were washed with PBS, fixed with 2% (v/v) paraformaldehyde, and air dried. Each well was then viewed via bright field microscopy to determine the number of stained (dead) versus unstained cells. Five fields were viewed for each treatment.

Hey cells [3] = assay: Chemosensitization to docetaxel (Tox8), Hey cells; settings: control treatments
Experimental: Treatment with docetaxel. Hey or SK-OV-3 cells were plated in 96-well cell culture plates at a concentration of 1×10^4 cells/well. Hey or SK-OV-3 cells were subjected to nanogel delivery of siRNA at nanogel concentrations of 1000, 100, 10, and 1 μg/mL. Forty-eight hours after siRNA delivery, docetaxel was added to Hey or SK-OV-3 cells at concentrations ranging from 0.01-1000 nM. Treatment wells were set up in triplicate, and the cells were incubated with docetaxel for an additional 4 days. After treatment, the cells were washed with PBS, and 100 μL of medium was added back to the wells. To this, 10 μL of Tox8 was added to determine cell viability. The cells were incubated with the Tox8 reagent according to the manufacturer's instructions. The fluorescence was measured ([…]) by a Spectramax Gemini Fluorescence Microplate Reader (Molecular Devices, Sunnyvale, Calif.). Wells without cells but with Tox8 were used as controls and subtracted from all treatments as background. Each experiment was performed in duplicate.
Statistical analysis. Statistical analysis of the immunoblot data was performed using a non-parametric ANOVA (Kruskal Wallis) test. If significance was indicated, a Dunn's post-test was used to determine significance between groups. […]

EGFR = EGFR expression by immunoblotting in Hey cells; settings: Example 2
Experimental: Immunoblotting. Hey cells were plated into 6-well plates (5×10^5/well) and allowed to adhere overnight at 37° C., 5% CO2. The cells were lysed with 100 μL of lysis buffer (50 mM Tris-HCl, pH 7.5, 150 mM NaCl, 2 mM EDTA (Fisher), 2 mM EGTA (Fisher), 1 mM sodium orthovanadate, 2.5 mM sodium pyrophosphate, 1 mM β-gycerolphosphate, 1 mM phenylmethanesulfonyl fluoride, 10 μg/mL aprotinin, 10 μg/mL leupeptin, 1% Triton X-100, and 5% glycerol), and the cell lysates sonicated four times for five seconds each. The lysates were cleared by centrifugation at 11,000×g rcf for […] at 4° C. Cell lysates were prepared for analysis by the addition of an equal volume of Laemmli 2× sample buffer. The samples were heated to 95° C. for […] to denature the proteins. The proteins were separated on a 10% SDS-PAGE gel and transferred onto nitrocellulose. The blots were blocked with either 5% nonfat dry milk (NFDM) or 5% bovine serum albumin (BSA) in 10 mM Tris-buffered saline, pH 7.5 plus 1% Tween 20 (TBST, BioRad) for 1 hour at room temperature. The blots were probed with anti-EGFR antibody (Cell Signaling, Danvers, Mass.; cat. no. 4405) or with a β-actin antibody (Millipore, Billerica, Mass.; Mab1501) diluted in 5% NFDM or 5% BSA overnight, with shaking at 4° C. For EphA2 detection, the blots were probed with an anti-EphA2 polyclonal antibody (Santa Cruz Biotechnology, Santa Cruz, Calif.; sc-294). The blots were washed three times with TBST and probed with goat anti-rabbit IgG (Santa Cruz, sc-2004) or with goat anti-mouse IgG (Santa Cruz, sc-2005) linked to horseradish peroxidase (HRP). Bands were visualized on film (Pierce) using the ECL reagent, SuperSignal West Pico™ (Pierce).
As described above, we chose siRNA targeting EGFR; knockdown of this receptor is non-lethal, but has clinical relevance in the treatment of drug resistant ovarian carcinomas. To determine if we could effectively knockdown EGFR in vitro, EGFR siRNA was encapsulated at a concentration of 16.6 μg of EGFR siRNA/mg of nanogels, using the loading technique described above. […]

| Substance | cell fluorescence relative to cell autofluorescence (Hey cells [1]) | blue (dead) cells (Hey cells [2]) | sensitivity to docetaxel versus untreated controls (Hey cells [3]) | EGFR expression of control treatments compared to untreated cells (EGFR) |
| --- | --- | --- | --- | --- |
| SCR-conjugated nanogels: nanogels bearing the scrambled peptide DYPSMAMYSPSVC (SEQ ID NO 2), control (also: conjugated to nanogels) [reference compound] | only slightly greater than the cell autofluorescence background signal | not observed |  |  |
| YSAYPDSVPMMSC (listed as Homo sapiens) [YSA peptide] |  |  | increased sensitivity to docetaxel | diminished EGFR expression |
